These results are taken from PMC4542547 (Scientific Reports, 2015).

pIC50: −log10 of the molar value. Values joined by “and” are separate entries in the source; they are usually repeats but may differ in a detail not shown here. Equal values may be shown once. Read-outs that look alike come from different tables or passages of the source. Positions of bridges follow the written chain, without caps; N, C: chain ends. Residues, ends and D or L forms follow the SMILES beside them.

The target in one series is T1, human α9α10 nAChRs (Homo sapiens, UniProt Q9GZZ6+Q9UGM1).
T1 construct: expressed in transfected cells; host or cells: Xenopus laevis oocytes (cRNA injection)
T1 sequence (Q9UGM1 26-479 limits assumed): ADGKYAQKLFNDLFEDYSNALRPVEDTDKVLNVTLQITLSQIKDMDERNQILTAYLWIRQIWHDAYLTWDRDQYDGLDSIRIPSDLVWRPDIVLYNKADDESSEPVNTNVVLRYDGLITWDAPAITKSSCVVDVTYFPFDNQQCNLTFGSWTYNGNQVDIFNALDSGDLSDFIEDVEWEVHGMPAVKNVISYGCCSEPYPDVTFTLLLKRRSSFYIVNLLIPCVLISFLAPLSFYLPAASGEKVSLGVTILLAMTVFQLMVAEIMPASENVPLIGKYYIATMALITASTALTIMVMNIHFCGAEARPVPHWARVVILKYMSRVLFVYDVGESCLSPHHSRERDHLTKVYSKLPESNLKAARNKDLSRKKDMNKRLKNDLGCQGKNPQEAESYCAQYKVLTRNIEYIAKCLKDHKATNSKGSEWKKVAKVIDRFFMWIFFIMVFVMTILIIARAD
T1 sequence (Q9GZZ6 25-450): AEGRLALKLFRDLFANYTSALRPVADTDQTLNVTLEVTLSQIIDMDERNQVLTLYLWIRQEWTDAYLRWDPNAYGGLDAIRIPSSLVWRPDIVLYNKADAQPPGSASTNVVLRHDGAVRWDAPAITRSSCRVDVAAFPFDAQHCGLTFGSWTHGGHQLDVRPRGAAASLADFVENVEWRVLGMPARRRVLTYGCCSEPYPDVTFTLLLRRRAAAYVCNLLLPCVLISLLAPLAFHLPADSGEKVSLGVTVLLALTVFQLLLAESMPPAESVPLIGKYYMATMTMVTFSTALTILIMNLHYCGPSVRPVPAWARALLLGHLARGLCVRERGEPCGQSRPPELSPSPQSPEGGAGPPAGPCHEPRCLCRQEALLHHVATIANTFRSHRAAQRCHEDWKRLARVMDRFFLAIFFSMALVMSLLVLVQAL
The series is described as follows: cell-based. The series is classed as cell-based.

Series [1] has as its system rat N-type (Cav2.2) calcium channels. As to conditions: read-out: IC50 rN-type (Cav2.2); cited from earlier work.
For series [2], the system named is recombinant human Cav2.3 calcium channels. As to conditions: read-out: IC50 hCav2.3; cited from earlier work.
The subject of another series is rat α9α10 nAChRs. The conditions noted are these: cited from earlier work.
The subject of series [3] is rat N-type (Cav2.2) calcium channels. The series is classed as cell-based. As to conditions: read-out: IC50 rN-type (Cav2.2).
The subject of series [4] is recombinant human Cav2.3 calcium channels. The series is classed as cell-based. The conditions noted are these: read-out: IC50 hCav2.3.
Another series in a line: in vitro. The conditions noted are these: male, human, serum.

In general, pIC50 refers to −log10 of the IC50, conventionally taken in molar units. `CC[C@H](C)[C@@H]1NC(=O)[C@H](CCC(=O)O)NC(=O)[C@@H]2CCCN2C(=O)[C@H](Cc2cnc[nH]2)NC(=O)[C@H](CC(=O)O)NC(=O)[C@H](Cc2ccc(O)cc2)NC(=O)[C@H](CC(N)=O)NC(=O)[C@@H]2CSSC[C@H](NC(=O)CN)C(=O)N[C@@H](CSSC[C@@H](C(N)=O)NC1=O)C(=O)N[C@@H](CO)C(=O)N[C@@H](CC(=O)O)C(=O)N1CCC[C@H]1C(=O)N[C@@H](CCCNC(=N)N)C(=O)N2` [Vc1.1, reference compound] had a pIC50 at human α9α10 nAChRs of 6.49.

For `CC[C@H](C)[C@@H]1NC(=O)[C@H](CCC(=O)O)NC(=O)[C@@H]2CCCN2C(=O)[C@H](Cc2c[nH]cn2)NC(=O)[C@H](CC(=O)O)NC(=O)[C@H](Cc2ccc(O)cc2)NC(=O)[C@H](CC(N)=O)NC(=O)[C@@H]2CSSC[C@@H]3NC(=O)CNC(=O)CNC(=O)CNC(=O)[C@H](C)NC(=O)[C@H](C)NC(=O)CNC(=O)CNC(=O)[C@H](CSSC[C@H](NC3=O)C(=O)N[C@@H](CO)C(=O)N[C@@H](CC(=O)O)C(=O)N3CCC[C@H]3C(=O)N[C@@H](CCCNC(=N)N)C(=O)N2)NC1=O` [cVc1.1], the values for the pIC50 (in series [1]; in series [2]; in the series on rat α9α10 nAChRs) were 9.52, 9.54 and 6.12, respectively.

Turning to `CC[C@H](C)[C@@H]1NC(=O)[C@H](CCC(=O)O)NC(=O)[C@@H]2CCCN2C(=O)[C@H](Cc2c[nH]cn2)NC(=O)[C@H](CC(=O)O)NC(=O)[C@H](Cc2ccc(O)cc2)NC(=O)[C@H](CC(N)=O)NC(=O)[C@H](Cc2ccccc2)NC(=O)[C@H](CCCNC(=N)N)NC(=O)[C@@H]2CCCN2C(=O)[C@H](CC(=O)O)NC(=O)[C@H](CO)NC(=O)[C@@H]2CSSC[C@H](NC1=O)C(=O)NCC(=O)NCC(=O)N[C@@H](C)C(=O)N[C@@H](C)C(=O)NCC(=O)NCC(=O)NCC(=O)N[C@@H](Cc1c[nH]cn1)C(=O)N2` [hcVc1.1] (cyclo(AAGGGHCSDPRFNYDHPEICGG); disulfide 7-20), the pIC50 in series [3] is ~9.05 and 9.07; in series [4] it was ~9.05 and 9.02. The “lower potency than cVc1.1 at human recombinant α9α10 nAChR currents” value at human α9α10 nAChRs is recorded as “two-fold”.

As a reminder, the amount remaining is the share of the starting amount still present when the sample was taken. Turning to `CC[C@H](C)[C@@H]1NC(=O)[C@H](CCC(=O)O)NC(=O)[C@@H]2CCCN2C(=O)[C@H](Cc2cnc[nH]2)NC(=O)[C@H](CC(=O)O)NC(=O)[C@H](Cc2ccc(O)cc2)NC(=O)[C@H](CC(N)=O)NC(=O)[C@H](Cc2ccccc2)NC(=O)[C@H](CCCNC(=N)N)NC(=O)[C@@H]2CCCN2C(=O)[C@H](CC(=O)O)NC(=O)[C@H](CO)NC(=O)[C@@H]2CSSC[C@H](NC1=O)C(=O)NCC(=O)NCC(=O)N[C@@H](C)C(=O)N[C@@H](C)C(=O)NCC(=O)NCC(=O)NCC(=O)N[C@@H](Cc1cnc[nH]1)C(=O)N2` [hcVc1.1] (cyclo(AAGGGHCSDPRFNYDHPEICGG); disulfide 7-20), the share remaining at 24 h in “in vitro” is about 90%.
